The values below come from patent US8268990B2, “Compounds” (AstraZeneca AB, priority 2007, dated 2012).

The assay concerns the target T1, Recombinant human TLR7 (Homo sapiens, UniProt Q9NYK1).
T1 construct: expressed in transfected cells; host or cells: HEK293 cell line stably expressing the pNiFty2-SEAP reporter plasmid; TLR7 in vector pUNO, blasticidin selection
T1 sequence (Q9NYK1 27-1049): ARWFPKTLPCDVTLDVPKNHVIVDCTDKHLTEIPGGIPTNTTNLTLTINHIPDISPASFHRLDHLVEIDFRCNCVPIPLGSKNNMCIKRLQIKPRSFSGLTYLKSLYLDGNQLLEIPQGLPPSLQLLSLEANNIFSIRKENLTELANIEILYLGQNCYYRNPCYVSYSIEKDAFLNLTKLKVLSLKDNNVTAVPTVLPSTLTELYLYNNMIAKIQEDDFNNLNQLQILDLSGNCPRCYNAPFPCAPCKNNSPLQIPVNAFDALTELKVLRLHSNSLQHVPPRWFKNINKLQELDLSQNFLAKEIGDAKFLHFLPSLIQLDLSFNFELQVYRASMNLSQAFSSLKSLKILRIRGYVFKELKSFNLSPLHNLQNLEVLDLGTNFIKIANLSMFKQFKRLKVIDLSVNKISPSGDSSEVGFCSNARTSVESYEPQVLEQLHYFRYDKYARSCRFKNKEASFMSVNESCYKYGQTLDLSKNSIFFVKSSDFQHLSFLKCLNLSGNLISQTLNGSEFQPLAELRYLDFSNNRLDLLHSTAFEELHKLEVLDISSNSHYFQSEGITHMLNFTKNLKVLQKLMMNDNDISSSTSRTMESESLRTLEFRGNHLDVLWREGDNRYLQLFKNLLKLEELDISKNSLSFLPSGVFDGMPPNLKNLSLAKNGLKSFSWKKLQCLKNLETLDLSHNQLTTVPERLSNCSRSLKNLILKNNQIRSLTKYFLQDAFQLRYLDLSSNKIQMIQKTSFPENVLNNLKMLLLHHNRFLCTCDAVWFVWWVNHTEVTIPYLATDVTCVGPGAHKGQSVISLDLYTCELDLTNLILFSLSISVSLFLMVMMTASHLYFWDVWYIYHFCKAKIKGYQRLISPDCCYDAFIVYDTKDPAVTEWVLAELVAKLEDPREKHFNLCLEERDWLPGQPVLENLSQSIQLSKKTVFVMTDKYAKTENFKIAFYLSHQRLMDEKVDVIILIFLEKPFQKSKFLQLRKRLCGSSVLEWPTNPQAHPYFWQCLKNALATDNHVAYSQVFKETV
The assay is described as follows: Human TLR7 Assay (SEAP reporter).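 Further: SEAP driven by an NFkB-responsive composite promoter, pEC50 read at half of each compound's own maximal SEAP induction.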 To be noted: HEK293 cell line stably expressing human TLR7 and pNiFty2-SEAP reporter; SEAP induction after overnight incubation at 37° C., 0.1% (v/v) DMSO. It is filed as cell-based.

Text: Recombinant human TLR7 was stably expressed in a HEK293 cell line already stably expressing the pNiFty2-SEAP reporter plasmid; integration of the reporter gene was maintained by selection with the antibiotic zeocin. The most common variant sequence of human TLR7 (represented by the EMBL sequence AF240467) was cloned into the mammalian cell expression vector pUNO and transfected into this reporter cell-line. Transfectants with stable expression were selected using the antibiotic blasticidin. In this reporter cell-line, expression of secreted alkaline phosphatase (SEAP) is controlled by an NFkB/ELAM-1 composite promoter comprising five NFkB sites combined with the proximal ELAM-1 promoter. TLR signaling leads to the translocation of NFkB and activation of the promoter results in expression of the SEAP gene. TLR7-specific activation was assessed by determining the level of SEAP produced following overnight incubation of the cells at 37° C. with the standard compound in the presence of 0.1% (v/v) dimethylsulfoxide (DMSO). Concentration dependent induction of SEAP production by compounds was expressed as the concentration of compound which produced half of the maximal level of SEAP induction for that compound (pEC50).

In general, EC50 refers to the concentration needed to bring the measured effect to its halfway point. Consider `CCCCCNc1nc(N)nc(C)c1Cc1cc(CC(=O)OC)ccc1OC` [Example 54, Methyl 2-(3-((2-amino-4-methyl-6-(pentylamino)pyrimidin-5-yl)methyl)-4-methoxyphenyl)acetate], for which the EC50 was 79.4 nM.

On to `CCCCCNc1nc(N)nc(C)c1CCCCNCc1cccc(CC(=O)OC)c1` [Example 17, Methyl 2-(3-((4-(2-amino-4-methyl-6-(pentylamino)pyrimidin-5-yl)butylamino)methyl)phenyl)acetate], for which the EC50 is 1000 nM. The value for `CCCCCNc1nc(N)nc(C)c1CCCN(Cc1ccc(CC(=O)OC)cc1)C(=O)CN1CCOCC1` [Example 27, Methyl 2-(4-((N-(3-(2-amino-4-methyl-6-(pentylamino)pyrimidin-5-yl)propyl)-2-morpholinoacetamido)methyl)phenyl)acetate] was 2000 nM. The value for `CCCCCNc1nc(N)nc(C)c1CCCNCc1cccc(CC(=O)OC)c1` [Example 1, Methyl 2-(3-((3-(2-Amino-4-methyl-6-(pentylamino)pyrimidin-5-yl)propylamino)methyl)phenyl)acetate] was 501 nM; that for `CCCCCNc1nc(N)nc(C)c1Cc1cccc(CC(=O)OCCCCN2CCCC2)c1` [Example 84, 4-(Pyrrolidin-1-yl)butyl 2-(3-((2-amino-4-methyl-6-(pentylamino)pyrimidin-5-yl)methyl)phenyl)acetate] was 316 nM; that for `CCCCNc1nc(N)nc(C)c1Cc1ccc(CC(=O)OCCCCN2CCC(N(C)C)CC2)cc1OC` [Example 90, 4-(4-(Dimethylamino)piperidin-1-yl)butyl 2-(4-((2-amino-4-(butylamino)-6-methylpyrimidin-5-yl)methyl)-3-methoxyphenyl)acetate] was 25.1 nM. The value for `CCCCCNc1nc(N)nc(C)c1CCCN(Cc1cccc(CC(=O)OC)c1)C(=O)CN1CCN(CCCN(C)C)CC1` [Example 9, Methyl 2-(3-((N-(3-(2-amino-4-methyl-6-(pentylamino)pyrimidin-5-yl)propyl)-2-(4-(3-(dimethylamino)propyl)piperazin-1-yl)acetamido)methyl)phenyl)acetate] was 3980 nM; that for `CCC[C@@H](CO)Nc1nc(N)nc(C)c1Cc1ccc(CC(=O)OCC2CCN(C)CC2)cc1O` [Example 76, (S)-(1-Methylpiperidin-4-yl)methyl 2-(4-((2-amino-4-(1-hydroxypentan-2-ylamino)-6-methylpyrimidin-5-yl)methyl)-3-hydroxyphenyl)acetate] was 631 nM. With `CCCCNc1nc(N)nc(C)c1Cc1ccc(CC(=O)OCCCCN2CCCC2)cc1O` [Example 79, 4-(Pyrrolidin-1-yl)butyl 2-(4-((2-amino-4-(butylamino)-6-methylpyrimidin-5-yl)methyl)-3-hydroxyphenyl)acetate], the EC50 is 126 nM. For the molecule `CCCCCNc1nc(N)nc(C)c1CCCNCc1ccc(CC(=O)OC)cc1` [Example 2, Methyl 2-(4-((3-(2-amino-4-methyl-6-(pentylamino)pyrimidin-5-yl)propylamino)methyl)phenyl)acetate], the EC50 is 1000 nM. With `CCCC[C@@H](CCO)Nc1nc(N)nc(C)c1Cc1ccc(CC(=O)OC)cc1OC` [Example 31, (S)-Methyl 2-(4-((2-amino-4-(1-hydroxyheptan-3-ylamino)-6-methylpyrimidin-5-yl)methyl)-3-methoxyphenyl)acetate], the EC50 is 6.31 nM.

As to `CCCCCNc1nc(N)nc(C)c1Cc1ccc(CC(=O)OCCN(C)C)cc1` [Example 36, 2-(Dimethylamino)ethyl 2-(4-((2-amino-4-methyl-6-(pentylamino)pyrimidin-5-yl)methyl)phenyl)acetate], the EC50 was 251 nM.

Turning to `CC[C@H](O)CNc1nc(N)nc(C)c1Cc1ccc(CC(=O)OCC2CCN(C)CC2)cc1` [Example 81, (S)-(1-Methylpiperidin-4-yl)methyl 2-(4-((2-amino-4-(2-hydroxybutylamino)-6-methylpyrimidin-5-yl)methyl)phenyl)acetate], the EC50 is 1000 nM. The value for `CCCCNc1nc(N)nc(C)c1Cc1ccc(CC(=O)OC)cc1O` [Example 77, Methyl 2-(4-((2-amino-4-(butylamino)-6-methylpyrimidin-5-yl)methyl)-3-hydroxyphenyl)acetate] was 63.1 nM; that for `CCC[C@@H](CCO)Nc1nc(N)nc(C)c1Cc1ccc(CC(=O)OCCCCN(C)C)cc1F` [Example 86, (S)-4-(Dimethylamino)butyl 2-(4-((2-amino-4-(1-hydroxyhexan-3-ylamino)-6-methylpyrimidin-5-yl)methyl)-3-fluorophenyl)acetate] was 200 nM; that for `CCCCCNc1nc(N)nc(C)c1CCCNC(=O)Cc1ccc(CC(=O)OC)cc1` [Example 23, Methyl 2-(4-(2-(3-(2-amino-4-methyl-6-(pentylamino)pyrimidin-5-yl)propylamino)-2-oxoethyl)phenyl)acetate] was 1000 nM. The result for `CCCCCNc1nc(N)nc(C)c1CCCN(Cc1ccc(CC(=O)OC)cc1)C(=O)CN(C)C` [Example 4, Methyl 2-(4-((N-(3-(2-amino-4-methyl-6-(pentylamino)pyrimidin-5-yl)propyl)-2-(dimethylamino)acetamido)methyl)phenyl)acetate] reads 398 nM.
